Data set [1] has as its system human red blood cells (RBCs). The conditions noted are these: cited from earlier work.
For data set [2], the system named is A. baumannii ATCC BAA 1605. The conditions noted are these: planktonic cells, analyses performed in the previous study; cited from earlier work. The source says: Table 2 Antimicrobial activity (MIC [µg/mL]) of lipopeptides 1–18 against planktonic cells. | column: A. baumannii ATCC BAA 1605
The nature of data set [3]: Determination of peptide hydrophobicity with RP-HPLC (adjusted retention time). The following applies: RP-HPLC as measure of hydrophobicity; Waters X-Bridge Shield RP-18 3.0 × 100 mm, 3.5 μm; linear 20–80% acetonitrile in water over 30 min, 0.1% TFA; 0.5 mL/min; 25.0 °C; peptide 1 g/L in water (0.1% TFA); UV 214 nm; triplicate. The class given is physicochemical. The protocol: To determine peptide hydrophobicity, a Waters Alliance e2695 system with a Waters 2998 PDA Detector was used. All analyses were carried out on a Waters X-Bridge Shield RP-18 column (3.0 × 100 mm, 3.5 μm particle size, 130 Å pore size). The peptides were dissolved in water (0.1% TFA, v/v) up to a concentration of 1 g/L. UV detection at 214 nm was used, and samples (10 μL) were eluted with a linear 20–80% acetonitrile gradient in deionized water over 30 min at 25.0 ± 0.1 °C. The mobile phase flow rate was 0.5 mL/min. Both eluents contained 0.1% (v/v) of TFA. Each peptide sample was analyzed in triplicate. Maximum standard deviation and coefficient of variation were 0.046 and 0.23%, respectively.
After synthesis and purification, all the products were analyzed with MS and HPLC to confirm purity and identity of the compounds. […] The chromatographic analyses were performed with RP-HPLC; retention time refers to hydrophobicity of the lipopeptide.

The subject of another data set is K. aerogenes ATCC 13048. The following applies: planktonic cells, analyses performed in the previous study; cited from earlier work. The source says: Table 2 Antimicrobial activity (MIC [µg/mL]) of lipopeptides 1–18 against planktonic cells. | column: K. aerogenes ATCC 13048
The next data set relates to S. aureus ATCC 33591. The following applies: planktonic cells, analyses performed in the previous study; cited from earlier work. The source says: Table 2 Antimicrobial activity (MIC [µg/mL]) of lipopeptides 1–18 against planktonic cells. | column: S. aureus ATCC 33591
A further data set relates to C. glabrata ATCC 15126. The class given is cell-based, Candida glabrata. The conditions noted are these: ATCC 15126, 24 h. The protocol:
The Acinetobacter baumannii ATCC BAA-1605, Enterococcus faecium ATCC 700221, Klebsiella aerogenes ATCC 13048, Klebsiella pneumoniae ATCC 700603, Pseudomonas aeruginosa ATCC 9027, Staphylococcus aureus ATCC 33591, Candida glabrata ATCC 15126, strains were acquired from the American Type Culture Collection (ATCC). All the strains were stored at −80 °C in Roti-Store cryo vials and were transferred into fresh Mueller–Hinton broth (MHB, Becton Dickinson, Warsaw, Poland) for bacteria or RPMI-1640 (Sigma-Aldrich, Steinheim, Germany) for fungi before the tests and incubated for 24 h at 37 °C. Then, the cultures were seeded on the Mueller–Hinton agar (BioMaxima, Lublin, Poland) or Sabouraud dextrose agar (SDA, BioMaxima, Lublin, Poland) plates, respectively, and incubated as just mentioned. These agar cultures were used for further microbiological assays. Cell densities for all assays were adjusted spectrophotometrically (Multiskan GO Microplate Spectrophotometer, Thermo Fisher Scientific, Vantaa, Finland) at 600 and 530 nm for bacteria and fungi, respectively.
The MICs were determined using a broth microdilution method according to the Clinical and Laboratory Standard Institute guidelines. For this purpose, initial inoculums of bacteria (5 × 10^5 CFU/mL) in MHB and yeasts (2 × 10^3 CFU/mL) in RPMI-1640 with 2% D-glucose were exposed to the ranging concentration of lipopeptides (1–512 μg/mL) and incubated at 37 °C for 18 h and 24 h, respectively. The experiments were conducted on 96-well microtiter polystyrene plates (Kartell, Italy). The growth was assessed visually after incubation and the MIC was assumed as the lowest peptide concentration at which a noticeable growth of microorganisms was inhibited. All experiments were conducted in triplicate.

In a further data set the test system is P. aeruginosa ATCC 9027. The conditions noted are these: planktonic cells, analyses performed in the previous study; cited from earlier work. The source says: Table 2 Antimicrobial activity (MIC [µg/mL]) of lipopeptides 1–18 against planktonic cells. | column: P. aeruginosa ATCC 9027
A further data set concerns E. faecium ATCC 700221. The following applies: planktonic cells, analyses performed in the previous study; cited from earlier work. The source says: However, enhanced activity with elongation of the hydrocarbon chain length in fatty acid residue and the change of serine position to 2 or 3 could be seen. […] Generally, the lo ...
Another data set can be described thus: MTT assay, cytotoxicity. It counts as cell-based, human. The following applies: HaCaT, 24 h incubation at 37 °C, 0.5–500 μg/mL, six replicates per concentration, repeated at least twice. The protocol: To evaluate the cytotoxicity of the test peptides (IC50), the classic MTT assay on 96-well plates was performed for human keratinocytes (HaCaT) which were acquired from the ATCC. The assay was based on colorimetric determination of the cell metabolic activity where the color intensity reflected the number of live cells that could be measured spectrophotometrically. The cell line was cultured in a Dulbecco’s modified Eagle Medium (Invitrogen) supplemented with 10% fetal bovine serum (v/v), 100 units/mL of penicillin, 100 μg/mL of streptomycin, and 2 mM L-glutamine and was kept at 37 °C in a humidified 5% CO2 incubator. Briefly, a day after plating of 500 cells per well, a series of concentrations (0.5–500 μg/mL) of the test compounds were applied. DMSO was added to the control cells at a final concentration of 1.0% (v/v), which was related to the maximum concentration of the solvent compounds used in the experiment. After 24 h of incubation at 37 °C (humidified 5% CO2 incubator) with the peptides, a medium containing 1 mg/mL of MTT was added to the wells up to a final concentration of 0.5 mg/mL. Subsequently, the plates were incubated at 37 °C for 4 h. Then, the medium was aspirated, and the formazan product was solubilized with DMSO. The background absorbance at 630 nm was subtracted from that at 570 nm for each well (Epoch, BioTek Instruments, Winooski, VT, USA). Six replicates were conducted for each concentration. All experiments were repeated at least twice and the resulting IC50 values were calculated with a GraFit 7 software (v. 7.0, Erithacus, Berkley, CA, USA).
The selectivity indexes were calculated for all the strains as IC50/MIC. According to IC50, in most cases, glycosylation caused only a slight decrease in toxicity. However, in contrast with SI calculated for HC50, the differences between USCLs and gUSCLs are not so distinct. […] Moreover, toxicity of USCLs and gUSCLs is high and exceeds their antimicrobial activity. The lipopetides were not selective against Gram-negative strains (K. pneumoniae, A. baumannii, P. aeruginosa, K. aerogenes) over human cells. A few USCLs were selective (SI > 1) against E. faecium and S. aureus with SI up to 1.87; and some gUSCLs were selective against E. faecium but not against S. aureus, with SI between 0.63 and 1.73. […] In this case, SI of gUSCLs was noticeably […] than that of corresponding parent USCLs (2.07, 1.99, 2.67 vs. 2.53, 2.36, 3.46, respectively). Selectivity indexes were plotted against adjusted retention time (Figures S15–S21). A moderate linear correlation was found in USCLs and K. pneumoniae, C. glabrata, and gUSCLs and K. pneumoniae, K. aerogenes (R^2 between 0.6064 and 0.6481). A relatively high linear correlation was obtained for USCLs and K. aerogenes (R^2 of 0.8214) and also for gUSCLs and C. glabrata (R^2 of 0.9223).
(Formazan colour is commonly taken as a measure of viable cells.)

Data set [4] concerns K. pneumoniae ATCC 700603. The following applies: planktonic cells, analyses performed in the previous study; cited from earlier work. The source says:
Table 2 Antimicrobial activity (MIC [µg/mL]) of lipopeptides 1–18 against planktonic cells. | column: K. pneumoniae ATCC 700603

The test system of another data set is P. aeruginosa biofilm. Also on record: method as in PMID 33804887. The conditions noted are these: P. aeruginosa biofilm (Gram-negative strains); previous studies; cited from earlier work.
The next data set relates to K. pneumoniae biofilm. The arrangement: method as in PMID 33804887. The conditions noted are these: K. pneumoniae biofilm (Gram-negative strains); previous studies; cited from earlier work.
The next data set deals with S. aureus biofilm. Also on record: method as in PMID 33804887. The conditions noted are these: S. aureus ATCC 33591 biofilm; previous studies; cited from earlier work.
For another data set, the system named is A. baumannii biofilm. Also on record: method as in PMID 33804887. The following applies: A. baumannii biofilm (Gram-negative strains); previous studies; cited from earlier work.

In brackets after ≈: the same amount, converted by molar mass. Several values for one entry are separate records, joined by “and”; a condition that tells them apart may be missing. Identical values can stand only once. Marks after values point to notes of the source that are not given here. Where a SMILES comes first, the peptide text is derived from it. The star is where a group is joined. Myristoyl = CCCCCCCCCCCCCC(=O)*

For the compound `CCCCCCCCCCCCCC(=O)N[C@@H](CO)C(=O)N[C@@H](CCCNC(=N)N)C(=O)N[C@@H](CCCNC(=N)N)C(N)=O` [Peptide 1, C14-SRR-NH2] (Myristoyl-Ser-Arg-Arg-NH2), the “HC50 (hemolytic activity)” value in data set [1] is reported as 41.54 ± 1.29 µg/mL. Moreover, the minimal inhibitory concentration (MIC) (in general, the lowest concentration that inhibits growth of the organism) was 32 * µg/mL in data set [2]; 128 * µg/mL with K. aerogenes ATCC 13048; 16 * µg/mL in the data set on S. aureus ATCC 33591; 32 µg/mL (≈ 51 µM) with C. glabrata ATCC 15126; 32 * µg/mL in the data set on P. aeruginosa ATCC 9027; 16 µg/mL and 16 * µg/mL with E. faecium ATCC 700221. For the same compound, the MIC in data set [4] was 128 * µg/mL. Further, in data set [3], the “Adjusted Retention Time” value is recorded as 16.55 min. In addition, in “MTT assay, cytotoxicity”, the IC50 (usually the concentration needed to halve the response being measured) was determined as 1.41 ± 0.29 µg/mL (≈ 2.25 µM).

In the case of C12-RR-NH2 [Peptide C12-RR-NH2], the MBEC is given as 512 µg/mL in the data set on P. aeruginosa biofilm, 512 µg/mL with K. pneumoniae biofilm, 64 µg/mL in the data set with S. aureus biofilm and 512 µg/mL with A. baumannii biofilm.

The record behind these values is PMC9855884, “Glycosylated Lipopeptides—Synthesis and Evaluation of Antimicrobial Activity and Cytotoxicity” (Biomolecules, 2023).
